These are literature values, as cited in US5607940A (priority 1994, dated 1997).

The conditions of data set [1]: in vivo.
For data set [2] the following is noted: silver anode; listed as MHCl, hydrochloride.

On to `CN1CC[C@]23c4c5ccc(O)c4O[C@H]2[C@@H](O)C=C[C@H]3[C@H]1C5` [morphine], for which, in data set [1], the “time to clinically effective blood levels” value is 15 to 20 min.

In the case of `CN1CC[C@]23c4c5ccc(O)c4O[C@H]2[C@@H](O)C=C[C@H]3[C@H]1C5.Cl` [morphine hydrochloride], the utilization of morphine result in data set [2] is listed as “about 10%”.
